Measurements from ChEMBL document CHEMBL1201862, “PubChem BioAssay data set” (2004).
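Each compound was tested at five concentrations against cells in 96-well plates for 48 hours. The concentration for 50% growth inhibition is given as GI50.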 The source made the active and inactive calls. No stated cut-off is given here; in the data, active = GI50 up to about 1.1 µM and inactive = higher.

Columns and labels:
Experiment in all cases: NCI tumour cell line growth inhibition, 48 h
SK-MEL-5 = test system: SK-MEL-5
HOP-92 = test system: HOP-92
NCI/ADR-RES = test system: NCI/ADR-RES
MCF7 = test system: MCF7
SN12C = test system: SN12C
UACC-257 = test system: UACC-257
OVCAR-5 = test system: OVCAR-5
SK-MEL-2 = test system: SK-MEL-2
NCI-H460 = test system: NCI-H460
IGROV-1 = test system: IGROV-1
COLO 205 = test system: COLO 205
NCI-H522 = test system: NCI-H522
RPMI-8226 = test system: RPMI-8226
K562 = test system: K562
UACC-62 = test system: UACC-62
NCI-H23 = test system: NCI-H23
HOP-62 = test system: HOP-62
HCT-116 = test system: HCT-116
M14 = test system: M14

Structure (SMILES) | GI50 (SK-MEL-5) | GI50 (HOP-92) | GI50 (NCI/ADR-RES) | GI50 (MCF7) | GI50 (SN12C) | GI50 (UACC-257) | GI50 (OVCAR-5) | GI50 (SK-MEL-2) | GI50 (NCI-H460) | GI50 (IGROV-1) | GI50 (COLO 205) | GI50 (NCI-H522) | GI50 (RPMI-8226) | GI50 (K562) | GI50 (UACC-62) | GI50 (NCI-H23) | GI50 (HOP-62) | GI50 (HCT-116) | GI50 (M14)
O=C(O)c1cn2c3c(cc(N4CCN(CCO)CC4)cc3c1=O)SCC2 | > 100 µM (inactive) | 59.6 µM (inactive) | > 89.7 µM (inactive) | 29.7 µM (inactive) | 47.1 µM (inactive) | > 100 µM (inactive) | > 75.5 µM (inactive) | 48.4 µM (inactive) | > 95.7 µM (inactive) | > 100 µM (inactive) | > 100 µM (inactive) | 26.5 µM (inactive) | > 100 µM (inactive) | 65.9 µM (inactive) | > 78.2 µM (inactive) | 57.5 µM (inactive) | 48.4 µM (inactive) | > 100 µM (inactive) | –
Cc1ccc(C)c(NC(=O)C(=O)C(C(=O)c2ccc3ccccc3c2)C2OC(=O)c3ccccc32)c1 (stereo unspecified) | 17.2 µM (inactive) | 26.1 µM (inactive) | – | – | 15.7 µM (inactive) | 15.5 µM (inactive) | 14.9 µM (inactive) | 13.6 µM (inactive) | 11.6 µM (inactive) | 18.2 µM (inactive) | 15.8 µM (inactive) | 10 µM (inactive) | 22.2 µM (inactive) | 25.7 µM (inactive) | 14.6 µM (inactive) | 15.6 µM (inactive) | 20.2 µM (inactive) | 12.3 µM (inactive) | 14.6 µM (inactive)
OC1CCSc2ccccc21 (stereo unspecified) | > 100 µM (inactive) | – | – | – | > 100 µM (inactive) | – | > 100 µM (inactive) | > 100 µM (inactive) | > 100 µM (inactive) | > 100 µM (inactive) | > 100 µM (inactive) | > 100 µM (inactive) | > 100 µM (inactive) | > 100 µM (inactive) | > 100 µM (inactive) | > 100 µM (inactive) | > 100 µM (inactive) | > 100 µM (inactive) | > 100 µM (inactive)
CC[C@@]1(O)C[C@H](OC2CC(N(C)C)C(O)C(C)O2)c2c(cc3c(c2O)C(=O)c2c(O)ccc(O)c2C3=O)[C@H]1C(=O)OC (stereo partly specified) | 0.0938 µM (active) | 0.256 µM (active) | 0.0526 µM (active) | 0.0885 µM (active) | 0.0377 µM (active) | 0.0863 µM (active) | 0.141 µM (active) | 0.101 µM (active) | 0.0221 µM (active) | 0.0468 µM (active) | 0.0467 µM (active) | 0.0521 µM (active) | 0.0364 µM (active) | 0.0292 µM (active) | 0.0451 µM (active) | 0.11 µM (active) | 0.107 µM (active) | 0.0229 µM (active) | –
O=C(Nc1ccc(Cl)cc1)C(=O)C(C(=O)c1ccccc1-c1ccccc1)C1OC(=O)c2ccccc21 (stereo unspecified) | 14.5 µM (inactive) | 27 µM (inactive) | – | – | 19.3 µM (inactive) | 21.9 µM (inactive) | 28.3 µM (inactive) | 20.8 µM (inactive) | 19.4 µM (inactive) | 29.1 µM (inactive) | 21.7 µM (inactive) | 14.2 µM (inactive) | 26.9 µM (inactive) | 34.4 µM (inactive) | 15.9 µM (inactive) | 23.1 µM (inactive) | 26.4 µM (inactive) | 18.2 µM (inactive) | 20 µM (inactive)
CCCCCCCCCCCCCCCCNCC(O)CN (stereo unspecified) | 11.7 µM (inactive) | 2.65 µM (inactive) | 2.22 µM (inactive) | 2.36 µM (inactive) | 4.07 µM (inactive) | 9.89 µM (inactive) | 7.76 µM (inactive) | 18.6 µM (inactive) | 1.84 µM (inactive) | 5.19 µM (inactive) | 1.87 µM (inactive) | 14.5 µM (inactive) | 2 µM (inactive) | 1.75 µM (inactive) | 4.7 µM (inactive) | 6.71 µM (inactive) | 16.7 µM (inactive) | 1.87 µM (inactive) | –
O=C(N/C=C1\C(=O)Oc2ccccc2C1=O)NC1CCCCC1 | > 100 µM (inactive) | 18.5 µM (inactive) | – | – | 39.7 µM (inactive) | 69.7 µM (inactive) | > 100 µM (inactive) | 24.2 µM (inactive) | > 100 µM (inactive) | 56.5 µM (inactive) | > 100 µM (inactive) | – | > 100 µM (inactive) | – | 28 µM (inactive) | 69 µM (inactive) | 68.4 µM (inactive) | 78.5 µM (inactive) | 50.2 µM (inactive)
O=C(O)C1=C(CO)Oc2cc3c(cc2C1c1ccc2c(c1)OCO2)OCO3 (stereo unspecified) | > 100 µM (inactive) | > 100 µM (inactive) | – | – | > 100 µM (inactive) | > 100 µM (inactive) | – | > 100 µM (inactive) | > 100 µM (inactive) | > 100 µM (inactive) | > 100 µM (inactive) | – | > 100 µM (inactive) | > 100 µM (inactive) | > 100 µM (inactive) | > 100 µM (inactive) | > 100 µM (inactive) | > 100 µM (inactive) | > 100 µM (inactive)
CC(C)=CC1CC(=O)C1(C)Sc1ccccc1 (stereo unspecified) | 33.3 µM (inactive) | 29.9 µM (inactive) | – | – | 71.8 µM (inactive) | 45.5 µM (inactive) | > 100 µM (inactive) | 35.2 µM (inactive) | 25 µM (inactive) | > 100 µM (inactive) | 23.1 µM (inactive) | 24 µM (inactive) | 20.6 µM (inactive) | 21.9 µM (inactive) | > 100 µM (inactive) | 56.4 µM (inactive) | > 100 µM (inactive) | 29.6 µM (inactive) | 96.4 µM (inactive)
O=S(=O)(O)c1ccc(/N=N\c2ccc(/N=N\c3ccc(/C=C/c4ccc(/N=[N+](/[O-])c5ccc(/C=C/c6ccc(/N=N/c7ccc(/N=N\c8ccc(S(=O)(=O)O)cc8)cc7)cc6S(=O)(=O)O)c(S(=O)(=O)O)c5)cc4S(=O)(=O)O)c(S(=O)(=O)O)c3)cc2)cc1 | > 100 µM (inactive) | > 100 µM (inactive) | > 100 µM (inactive) | > 100 µM (inactive) | > 100 µM (inactive) | > 100 µM (inactive) | > 100 µM (inactive) | > 100 µM (inactive) | > 100 µM (inactive) | > 100 µM (inactive) | > 100 µM (inactive) | 86.3 µM (inactive) | > 100 µM (inactive) | > 100 µM (inactive) | > 100 µM (inactive) | > 100 µM (inactive) | > 100 µM (inactive) | > 100 µM (inactive) | –
COc1cc(O)c2c(c1)C(=O)c1cc3c(c(O)c1C2=O)C(OC1OC(C)C(O)C(O)C1OC)C(OC)C(C)(O)C3=O (stereo unspecified) | 0.865 µM (active) | 0.436 µM (active) | 3.48 µM (inactive) | 2.54 µM (inactive) | 1.9 µM (inactive) | 0.723 µM (active) | 4.43 µM (inactive) | 3.65 µM (inactive) | 1.53 µM (inactive) | 2.52 µM (inactive) | 0.76 µM (active) | 1.93 µM (inactive) | – | – | 1.38 µM (inactive) | 2.06 µM (inactive) | 3.82 µM (inactive) | – | –
O=Cc1c(Cn2ccnc2)c2cc([N+](=O)[O-])ccc2n1Cc1ccccc1 | 99.1 µM (inactive) | > 100 µM (inactive) | > 61.8 µM (inactive) | 75.3 µM (inactive) | > 86.5 µM (inactive) | > 100 µM (inactive) | > 90.6 µM (inactive) | > 100 µM (inactive) | 37.3 µM (inactive) | > 83 µM (inactive) | > 100 µM (inactive) | > 100 µM (inactive) | > 100 µM (inactive) | 97.1 µM (inactive) | > 100 µM (inactive) | > 100 µM (inactive) | 27.3 µM (inactive) | 52 µM (inactive) | –
